Assay results published in BindingDB's records for doi:10.1016/j.bmc.2008.07.037 (Merck Research Laboratories, 2008).
pEC50: −log10 of the molar value.

assay: Inhibition of glucocorticoid-mediated human MMP1 expression in PMA stimulated A549 cells assessed as MMP1 protein level by ELISA

SMILES	pEC50
CCC(C)(C)NC(=O)O[C@]1(C(=O)CO)[C@@H](C)C[C@H]2[C@@H]3CCC4=CC(=O)C=C[C@]4(C)[C@@]3(F)[C@@H](O)C[C@@]21C [(8S,9R,10S,11S,13S,14S,16S,17R)-9-fluoro-11-hydroxy-17-(2-hydroxyacetyl)-10,13,16-trimethyl-3-oxo-6,7,8,9,10,11,12,13,14,15,16,17-dodecahydro-3H-cyclopenta[a]phenanthren-17-yl tert-pentylcarbamate]	7.27
COC(=O)[C@H](C)NC(=O)O[C@]1(C(=O)CO)[C@@H](C)C[C@H]2[C@@H]3CCC4=CC(=O)C=C[C@]4(C)[C@@]3(F)[C@@H](O)C[C@@]21C [(11beta,16beta)-9-Fluoro-11,21-dihydroxy-16-methyl-3,20-dioxopregna-1,4-dien-17-yl (1S)-1-(methoxycarbonyl)-ethylcarbamate]	7.08
C[C@H]1C[C@H]2[C@@H]3CCC4=CC(=O)C=C[C@]4(C)[C@@]3(F)[C@@H](O)C[C@]2(C)[C@@]1(OC(=O)NCC(C)(C)C)C(=O)CO [(8S,9R,10S,11S,13S,14S,16S,17R)-9-fluoro-11-hydroxy-17-(2-hydroxyacetyl)-10,13,16-trimethyl-3-oxo-6,7,8,9,10,11,12,13,14,15,16,17-dodecahydro-3H-cyclopenta[a]phenanthren-17-yl neopentylcarbamate]	10.00
CCC(C)NC(=O)O[C@]1(C(=O)CO)[C@@H](C)C[C@H]2[C@@H]3CCC4=CC(=O)C=C[C@]4(C)[C@@]3(F)[C@@H](O)C[C@@]21C (stereo partly drawn) [(8S,9R,10S,11S,13S,14S,16S,17R)-9-fluoro-11-hydroxy-17-(2-hydroxyacetyl)-10,13,16-trimethyl-3-oxo-6,7,8,9,10,11,12,13,14,15,16,17-dodecahydro-3H-cyclopenta[a]phenanthren-17-yl sec-butylcarbamate]	9.10
CCCCCNC(=O)O[C@]1(C(=O)CO)[C@@H](C)C[C@H]2[C@@H]3CCC4=CC(=O)C=C[C@]4(C)[C@@]3(F)[C@@H](O)C[C@@]21C [(8S,9R,10S,11S,13S,14S,16S,17R)-9-fluoro-11-hydroxy-17-(2-hydroxyacetyl)-10,13,16-trimethyl-3-oxo-6,7,8,9,10,11,12,13,14,15,16,17-dodecahydro-3H-cyclopenta[a]phenanthren-17-yl pentylcarbamate]	7.74
CCNC(=O)O[C@]1(C(=O)CO)[C@@H](C)C[C@H]2[C@@H]3CCC4=CC(=O)C=C[C@]4(C)[C@@]3(F)[C@@H](O)C[C@@]21C [(11beta,16beta)-9-Fluoro-11,21-dihydroxy-16-methyl-3,20-dioxopregna-1,4-dien-17-yl ethylcarbamate]	7.80
C[C@H]1C[C@H]2[C@@H]3CCC4=CC(=O)C=C[C@]4(C)[C@@]3(F)[C@@H](O)C[C@]2(C)[C@@]1(OC(=O)NC1CCCC1)C(=O)CO [(11beta,16beta)-9-Fluoro-11,21-dihydroxy-16-methyl-3,20-dioxopregna-1,4-dien-17-yl cyclopentylcarbamate]	8.55
CCCNC(=O)O[C@]1(C(=O)CO)[C@@H](C)C[C@H]2[C@@H]3CCC4=CC(=O)C=C[C@]4(C)[C@@]3(F)[C@@H](O)C[C@@]21C [(11beta,16beta)-9-Fluoro-11,21-dihydroxy-16-methyl-3,20-dioxopregna-1,4-dien-17-yl propylcarbamate]	7.73
C[C@H]1C[C@H]2[C@@H]3CCC4=CC(=O)C=C[C@]4(C)[C@@]3(F)[C@@H](O)C[C@]2(C)[C@@]1(OC(=O)NC1CCCCC1)C(=O)CO [(8S,9R,10S,11S,13S,14S,16S,17R)-9-fluoro-11-hydroxy-17-(2-hydroxyacetyl)-10,13,16-trimethyl-3-oxo-6,7,8,9,10,11,12,13,14,15,16,17-dodecahydro-3H-cyclopenta[a]phenanthren-17-yl cyclohexylcarbamate]	8.89
C=CCNC(=O)O[C@]1(C(=O)CO)[C@@H](C)C[C@H]2[C@@H]3CCC4=CC(=O)C=C[C@]4(C)[C@@]3(F)[C@@H](O)C[C@@]21C [(11beta,16beta)-9-Fluoro-11,21-dihydroxy-16-methyl-3,20-dioxopregna-1,4-dien-17-yl allylcarbamate]	7.41
C[C@H]1C[C@H]2[C@@H]3CCC4=CC(=O)C=C[C@]4(C)[C@@]3(F)[C@@H](O)C[C@]2(C)[C@@]1(OC(=O)NC12CC3CC(CC(C3)C1)C2)C(=O)CO [Adamantan-1-yl-carbamic acid (8S,9R,10S,11S,13S,14S,16S,17R)-9-fluoro-11-hydroxy-17-(2-hydroxy-acetyl)-10,13,16-trimethyl-3-oxo-6,7,8,9,10,11,12,13,14,15,16,17-dodecahydro-3H-cyclopenta[a]phenanthren-17-yl este]	8.47
C[C@H]1C[C@H]2[C@@H]3CCC4=CC(=O)C=C[C@]4(C)[C@@]3(F)[C@@H](O)C[C@]2(C)[C@@]1(OC(=O)NC(C)(C)CC(C)(C)C)C(=O)CO [(8S,9R,10S,11S,13S,14S,16S,17R)-9-fluoro-11-hydroxy-17-(2-hydroxyacetyl)-10,13,16-trimethyl-3-oxo-6,7,8,9,10,11,12,13,14,15,16,17-dodecahydro-3H-cyclopenta[a]phenanthren-17-yl 2,4,4-trimethylpentan-2-ylcarbamate]	7.63
CC(C)NC(=O)O[C@]1(C(=O)CO)[C@@H](C)C[C@H]2[C@@H]3CCC4=CC(=O)C=C[C@]4(C)[C@@]3(F)[C@@H](O)C[C@@]21C [(11beta,16beta)-9-Fluoro-11,21-dihydroxy-16-methyl-3,20-dioxopregna-1,4-dien-17-yl isopropylcarbamate]	8.72
C[C@H]1C[C@H]2[C@@H]3CCC4=CC(=O)C=C[C@]4(C)[C@@]3(F)[C@@H](O)C[C@]2(C)[C@@]1(OC(=O)NC(C)(C)C)C(=O)CO [(11beta,16beta)-9-Fluoro-11,21-dihydroxy-16-methyl-3,20-dioxopregna-1,4-dien-17-yl tert-butylcarbamate]	8.80
C[C@H](NC(=O)O[C@]1(C(=O)CO)[C@@H](C)C[C@H]2[C@@H]3CCC4=CC(=O)C=C[C@]4(C)[C@@]3(F)[C@@H](O)C[C@@]21C)c1ccccc1 [(11beta,16beta)-9-Fluoro-11,21-dihydroxy-16-methyl-3,20-dioxopregna-1,4-dien-17-yl (1S)-1-phenylethylcarbamate]	8.31
CCCCNC(=O)O[C@]1(C(=O)CO)[C@@H](C)C[C@H]2[C@@H]3CCC4=CC(=O)C=C[C@]4(C)[C@@]3(F)[C@@H](O)C[C@@]21C [(11beta,16beta)-9-Fluoro-11,21-dihydroxy-16-methyl-3,20-dioxopregna-1,4-dien-17-yl butylcarbamate]	7.66
C[C@H]1C[C@H]2[C@@H]3CCC4=CC(=O)C=C[C@]4(C)[C@@]3(F)[C@@H](O)C[C@]2(C)[C@@]1(OC(=O)NCCC(C)(C)C)C(=O)CO [(8S,9R,10S,11S,13S,14S,16S,17R)-9-fluoro-11-hydroxy-17-(2-hydroxyacetyl)-10,13,16-trimethyl-3-oxo-6,7,8,9,10,11,12,13,14,15,16,17-dodecahydro-3H-cyclopenta[a]phenanthren-17-yl 3,3-dimethylbutylcarbamate]	7.68
